Source: paper PMC4563558, “Discovery of a series of novel phenylpiperazine derivatives as EGFR TK inhibitors” (Scientific Reports, 2015)

Tests used:
Lung cells = assay: MTT assay, human normal lung cell line; type: cell-based; settings: read-out: IC50 ± SD, Lung cells
Experimental: (§1) To test the antiproliferative activities of the synthesized compounds (see supplementary Scheme S1 and S2), the target compounds were evaluated in vitro antiproliferation assays against three human cancer cell lines (MCF-7, HeLa and A549) and one human normal lung cell line.
(§2) The in vitro anticancer activities of the prepared compounds against MCF-7, HeLa and A549 cell lines were evaluated as described in the literature[23] with some modifications. Target tumor cells were grown to log phase in DMEM medium supplemented with 10% fetal bovine serum. After reaching a dilution of 1 × 10^5 cells mL^−1 with the medium, 100 μL of the obtained cell suspension was added to each well of 96-well culture plates. Subsequently, incubation was performed at 37 °C in 5% CO2 atmosphere for 48 h before the cytotoxicity assessment. Tested samples at preset concentrations were added to 6 wells with Erlotinib being employed as a positive reference. After 72 h exposure period, 25 μL of PBS containing 2.5 mg mL^−1 of MTT was added to each well. After 4 h, the medium was replaced by 150 μL DMSO to dissolve the purple formazan crystals produced. The absorbance at 570 nm of each well was measured with an ELISA plate reader. The data represented the mean of three independent experiments in triplicate and were expressed as means ± SD. The IC50 value was defined as the concentration at which 50% of the cells could survive.

VEGFR2 = molecular target: T1, VEGFR2 (Homo sapiens, UniProt P35968); assay: Kinase selectivity assay (kit), VEGFR2; type: biochemical; settings: read-out: Inhibition of VEGFR2 IC50
T1 construct: purchased Bio-Swamp
Experimental: (§3) To validate whether the above anti-proliferative effect was produced by interaction of EGFR protein and the synthesized compounds, the synthesized compounds were evaluated for their abilities to inhibit the activity of four protein kinases relevant to cancer: EGFR, VEGFR2, bFGF, PDGFR. […] Additionally, the activity data inferred that the IC50 values of these compounds shared a similar tendency with their relevant IC50 values of anti-proliferative assay. […] Therefore, we could conclude that the synthesized inhibitors can inhibit the function of EGFR and the anti-proliferative effect was produced partly by interaction of EGFR protein and the compounds.
(§4) The EGFR, VEGFR2, bFGF and PDGFR Kinase Assay Kit were purchased from Bio-Swamp. The experiments were performed according to the manufacturer’s instructions.

Erythrocytes = assay: Hemolysis test; type: cell-based; settings: human erythrocytes, 3 h incubation
Experimental: Hemolytic activity was assayed using fresh capillary human blood. Erythrocytes were collected by centrifuging the blood three times in chilled phosphate buffered saline (PBS at 4 °C) at 1000 × g for 10 min. The final pellet was resuspended in PBS to give a 2% w/v solution. Using a microtitre plate, 100 μL of the erythrocyte solution was added to dextran, PLL, stearyl-PLL or stearyl-PLL+LDL (1–1000/μg/mL) in a volume of […]. Samples were then incubated for 3 h and the microtitre plate was centrifuged then at 1000 × g for 10 min and the supernatants (100 μL) transferred into a new microtitre plate. Hemoglobin release was determined spectrophotometrically using a microtitre plate reader (absorbance at 550 nm). Results were expressed as the amount of released hemoglobin induced by the compounds as a percentage of the total. Hemolysis test was tested according to the guide of biological evaluation of medical device (SFDA, China).

MCF-7 = assay: MTT antiproliferation assay, MCF-7; type: cell-based; settings: Homo sapiens, MCF7, 72 h exposure, read-out: IC50 ± SD, MCF-7
Experimental: as §1, §2

bFGF = assay: Kinase selectivity assay (kit), bFGF; type: biochemical; settings: read-out: Inhibition of bFGF IC50
Experimental: as §3, §4

[1] = Acute oral toxicity, bodyweights; type: in vivo; settings: mice; for Bodyweights 0 day ± SD: day 0; for Bodyweights 7 days ± SD: day 7
Experimental: Before the acute toxicity experiment, mice were stopped being served food but water was kept for 3 h. The test substances were dissolved in maize germ oil[24]. The preliminary experiment was performed as follows: Four dose levels, 100, 500, 2000, and 5000 mg/kg body weight and three mice for each level were used. We observed the death and evident toxicity in 7 days to determine the general concentration range. Then the administration doses were graded with geometric progression for ease of the calculation of LD50. Mice were randomly divided into groups (10 mice/group). […] The control groups received maize germ oil only. After the administration, food was withheld for 2 h.

PDGFR = assay: Kinase selectivity assay (kit), PDGFR; type: biochemical; settings: read-out: Inhibition of PDGFR IC50
Experimental: as §3, §4

HeLa = assay: MTT antiproliferation assay, HeLa; type: cell-based; settings: Homo sapiens, 72 h exposure, read-out: IC50 ± SD, HeLa
Experimental: as §1, §2

EGFR = molecular target: T2, EGFR (Homo sapiens, UniProt P00533); assay: Kinase selectivity assay (kit), EGFR; type: biochemical; settings: read-out: Inhibition of EGFR IC50
T2 construct: purchased Bio-Swamp
Experimental: as §4

A549 = assay: MTT antiproliferation assay, A549; type: cell-based; settings: Homo sapiens, 72 h exposure, read-out: IC50 ± SD, A549
Experimental: as §1, §2

in vitro = type: cell-based; settings: mouse
Experimental: The cytotoxic activity in vitro was measured against mouse fibroblast NIH-3T3 cells using the MTT assay. Cells were cultured in a 96-well plate at a density of 5 × 10^5 cells and different concentrations of compounds were respectively added to each well. The incubation was permitted at 37 °C, 5% CO2 atmosphere for 24 h before the cytotoxicity assessments. 20 μL MTT reagent (4 mg/mL) was added per well 4 h before the end of the incubation. Four hours later, the plate was centrifuged at 1200 rcf for 5 min and the supernatants were removed, each well was added with 200 μL DMSO. The absorbance was measured at a wavelength of 490 nm (OD 490 nm) on an ELISA microplate reader. Three replicate wells were used for each concentration and each assay was measured three times, after which the average of IC50 was calculated.

[2] = system: MCF-7, HeLa and A549 cell lines; assay: Anticancer activities discussed in text (cell line not specified); type: cell-based, human; settings: comparison within series and with positive control
Experimental: According to the data presented in Table 1, it could be concluded that the activity of the tested compounds may be correlated to the variation and modifications of structure.
as §2

A549 cells = assay: Tumor volume in nude mice inoculated with A549 cells; type: in vivo; settings: 20 mg/kg/2 days, day 14
Experimental: To further evaluate the antitumor effect of compound 3p in vivo, we performed an animal study. Mice were inoculated subcutaneously with A549 cells (5.0 × 10^6) on their shoulders. […]. […] […].
Male BALB/c nude mice, 35–40 days old and weighing 18–22 g, were supplied by Shanghai Laboratory Animal Limited Company. The mice were raised in air-conditioned rooms under controlled lighting (12 h lighting/day) and were fed with standard laboratory food and water ad libitum. Before injection into the mice, the lung cancer cells (A549) were harvested by trypsinization and washed three times with cold serum-free medium and then injected in a total volume of 0.1 mL using a 1-mL latex-free syringe (BD) within 30 min of harvest. Mice were inoculated subcutaneously with A549 cells (5.0 × 10^6) on their shoulders. When the tumor had increased to 100 mm^3 , the mice were equally randomized into 4 groups (with 6 mice/group): saline tumor control group; compound 3p 20 mg/kg/2 days group; compound 3p 40 mg/kg/2 days group; […]. The control group received 0.9% normal saline. Tumor size was measured once every 2 days in two per-pendicular dimensions with Vernier calipers and converted to tumor volume (TV) using the formula: (ab^2)/2, where a and b refer to the longer and shorter dimensions, respectively. The body weight of the animals was measured twice a week at the same time as the tumor dimension measurement and the mortality was monitored daily. After the treatments, all mice were killed and weighed simultaneously, and then tumor was segregated and weighed.

T2 sequence (P00533 25-1210): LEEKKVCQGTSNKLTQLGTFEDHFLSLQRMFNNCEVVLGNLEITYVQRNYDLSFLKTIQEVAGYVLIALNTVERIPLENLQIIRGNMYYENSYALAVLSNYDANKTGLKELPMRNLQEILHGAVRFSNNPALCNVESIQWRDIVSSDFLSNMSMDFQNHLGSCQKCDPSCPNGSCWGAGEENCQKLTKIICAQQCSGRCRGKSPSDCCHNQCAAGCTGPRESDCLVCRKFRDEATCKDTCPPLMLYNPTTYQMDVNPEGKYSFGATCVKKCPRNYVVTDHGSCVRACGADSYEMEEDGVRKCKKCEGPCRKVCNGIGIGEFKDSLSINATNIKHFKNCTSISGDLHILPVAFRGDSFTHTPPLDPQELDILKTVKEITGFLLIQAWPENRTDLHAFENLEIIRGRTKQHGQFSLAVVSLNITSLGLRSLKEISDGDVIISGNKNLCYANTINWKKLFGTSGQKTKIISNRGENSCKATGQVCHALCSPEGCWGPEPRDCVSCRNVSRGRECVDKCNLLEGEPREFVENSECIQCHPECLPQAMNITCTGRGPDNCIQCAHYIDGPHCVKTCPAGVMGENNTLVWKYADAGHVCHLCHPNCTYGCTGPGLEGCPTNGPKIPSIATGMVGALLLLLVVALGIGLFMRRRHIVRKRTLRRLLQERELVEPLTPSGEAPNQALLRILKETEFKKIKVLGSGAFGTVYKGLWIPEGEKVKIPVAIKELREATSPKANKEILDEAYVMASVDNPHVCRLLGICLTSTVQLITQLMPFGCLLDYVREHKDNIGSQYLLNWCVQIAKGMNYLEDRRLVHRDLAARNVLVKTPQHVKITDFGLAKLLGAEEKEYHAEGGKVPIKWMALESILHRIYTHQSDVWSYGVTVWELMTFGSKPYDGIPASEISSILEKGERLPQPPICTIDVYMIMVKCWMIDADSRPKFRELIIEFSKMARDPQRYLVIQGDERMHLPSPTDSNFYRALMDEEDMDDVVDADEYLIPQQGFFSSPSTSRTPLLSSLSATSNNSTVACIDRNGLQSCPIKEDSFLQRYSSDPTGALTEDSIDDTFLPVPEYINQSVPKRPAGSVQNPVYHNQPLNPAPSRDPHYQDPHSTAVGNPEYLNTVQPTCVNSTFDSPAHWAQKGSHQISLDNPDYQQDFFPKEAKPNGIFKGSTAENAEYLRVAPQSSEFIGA
T1 sequence (P35968 20-1356, species assumed): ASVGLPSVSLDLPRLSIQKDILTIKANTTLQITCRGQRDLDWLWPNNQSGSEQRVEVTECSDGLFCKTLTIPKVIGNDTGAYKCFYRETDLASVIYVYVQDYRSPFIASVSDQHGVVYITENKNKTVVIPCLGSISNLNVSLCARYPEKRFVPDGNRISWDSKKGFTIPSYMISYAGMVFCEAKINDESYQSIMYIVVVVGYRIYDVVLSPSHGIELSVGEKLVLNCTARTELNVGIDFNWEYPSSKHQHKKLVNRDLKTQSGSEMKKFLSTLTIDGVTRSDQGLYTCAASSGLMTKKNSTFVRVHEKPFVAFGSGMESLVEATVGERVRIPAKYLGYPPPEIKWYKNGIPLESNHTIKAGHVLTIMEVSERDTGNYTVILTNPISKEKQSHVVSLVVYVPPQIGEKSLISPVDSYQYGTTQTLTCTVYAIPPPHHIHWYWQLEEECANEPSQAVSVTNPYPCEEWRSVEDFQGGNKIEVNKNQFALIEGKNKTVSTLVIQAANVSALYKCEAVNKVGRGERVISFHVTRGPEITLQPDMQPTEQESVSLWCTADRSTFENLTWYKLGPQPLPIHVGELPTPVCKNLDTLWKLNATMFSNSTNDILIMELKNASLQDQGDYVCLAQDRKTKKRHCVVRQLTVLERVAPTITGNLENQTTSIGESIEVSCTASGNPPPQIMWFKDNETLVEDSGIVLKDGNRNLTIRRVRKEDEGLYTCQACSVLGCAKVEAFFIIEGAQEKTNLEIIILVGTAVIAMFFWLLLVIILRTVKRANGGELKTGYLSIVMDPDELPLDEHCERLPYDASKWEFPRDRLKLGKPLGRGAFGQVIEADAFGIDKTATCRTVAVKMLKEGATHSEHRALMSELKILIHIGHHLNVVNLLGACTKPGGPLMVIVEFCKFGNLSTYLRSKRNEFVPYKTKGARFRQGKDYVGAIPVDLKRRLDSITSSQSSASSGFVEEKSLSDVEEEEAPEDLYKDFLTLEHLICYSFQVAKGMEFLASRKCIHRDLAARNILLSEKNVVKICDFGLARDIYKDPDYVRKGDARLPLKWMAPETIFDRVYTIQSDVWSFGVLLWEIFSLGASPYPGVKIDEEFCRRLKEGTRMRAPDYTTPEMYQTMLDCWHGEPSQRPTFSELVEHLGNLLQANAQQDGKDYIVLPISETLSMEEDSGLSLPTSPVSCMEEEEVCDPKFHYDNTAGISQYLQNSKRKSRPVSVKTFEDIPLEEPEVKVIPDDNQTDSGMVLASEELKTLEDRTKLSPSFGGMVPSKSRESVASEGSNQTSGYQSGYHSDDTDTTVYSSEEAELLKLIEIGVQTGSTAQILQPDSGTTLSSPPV

## COc1cc(OC)nc(NC(=O)CN2CCN(c3ccccc3F)CC2)n1 [3c, N-(4,6-Dimethoxypyrimidin-2-yl)-2-(4-(2-fluorophenyl)piperazin-1-yl)acetamide]
Lung cells
  IC50: 178 ± 2.02 µM
VEGFR2
  IC50: 8.94 ± 0.73 µM
Erythrocytes
  Hemolysis LC30 (lytic concentration 30%): >10000 µg/mL
MCF-7
  IC50: 4.13 ± 0.01 µM
bFGF
  IC50: 25.4 ± 2.34 µM
[1]
  Bodyweights 0 day ± SD: 21.09 ± 1.16 g
  Bodyweights 7 days ± SD: 26.09 ± 0.93 g
PDGFR
  IC50: 33.8 ± 1.94 µM
HeLa
  IC50: 2.69 ± 0.1 µM
EGFR
  IC50: 1.35 ± 0.006 µM
A549
  IC50: 0.55 ± 0.02 µM
In vitro
  IC50 at 24 h: 230 ± 3.15 µM

## COc1cc(OC)nc(NC(=O)CN2CCN(c3ccccc3)CC2)n1 [3d, N-(4,6-Dimethoxypyrimidin-2-yl)-2-(4-phenylpiperazin-1-yl)acetamide]
Lung cells
  IC50: 136 ± 3.15 µM
VEGFR2
  IC50: 10.1 ± 1.08 µM
Erythrocytes
  Hemolysis LC30 (lytic concentration 30%): >10000 µg/mL
MCF-7
  IC50: 9.87 ± 1 µM
bFGF
  IC50: 18.5 ± 2.11 µM
[1]
  Bodyweights 0 day ± SD: 21.18 ± 2.15 g
  Bodyweights 7 days ± SD: 25.57 ± 1.56 g
[2]
  Anticancer / antitumor activity (in words): worst anticancer activity
PDGFR
  IC50: 8.5 ± 0.09 µM
HeLa
  IC50: 10.2 ± 0.28 µM
EGFR
  IC50: 5.11 ± 0.03 µM
A549
  IC50: 2.17 ± 0.02 µM
In vitro
  IC50 at 24 h: 150 ± 2.56 µM

## COc1cc(OC)nc(NC(=O)CN2CCN(c3ccccc3OC)CC2)n1 [3e, N-(4,6-Dimethoxypyrimidin-2-yl)-2-(4-(2-methoxyphenyl)piperazin-1-yl)acetamide]
Lung cells
  IC50: 189.3 ± 1.78 µM
VEGFR2
  IC50: 5.33 ± 0.05 µM
Erythrocytes
  Hemolysis LC30 (lytic concentration 30%): >10000 µg/mL
MCF-7
  IC50: 2.57 ± 0.02 µM
bFGF
  IC50: 11.5 ± 0.89 µM
[1]
  Bodyweights 0 day ± SD: 21.11 ± 1.34 g
  Bodyweights 7 days ± SD: 25.34 ± 1.15 g
[2]
  Anticancer / antitumor activity (in words): better anticancer activities compared to the positive control
PDGFR
  IC50: 10 ± 1.17 µM
HeLa
  IC50: 1.55 ± 0.006 µM
EGFR
  IC50: 1.01 ± 0.004 µM
A549
  IC50: 1.97 ± 0.001 µM
In vitro
  IC50 at 24 h: 173 ± 5.31 µM

## COc1cc(OC)nc(NC(=O)CN2CCN(c3ccc([N+](=O)[O-])cc3)CC2)n1 [3f, N-(4,6-Dimethoxypyrimidin-2-yl)-2-(4-(4-nitrophenyl)piperazin-1-yl)acetamide]
Lung cells
  IC50: 202 ± 4.05 µM
VEGFR2
  IC50: 7.67 ± 0.07 µM
Erythrocytes
  Hemolysis LC30 (lytic concentration 30%): >10000 µg/mL
MCF-7
  IC50: 2.09 ± 0.01 µM
bFGF
  IC50: 21.5 ± 0.69 µM
[1]
  Bodyweights 0 day ± SD: 20.57 ± 1.43 g
  Bodyweights 7 days ± SD: 27.25 ± 1.50 g
PDGFR
  IC50: 24.5 ± 2.56 µM
HeLa
  IC50: 4.99 ± 0.07 µM
EGFR
  IC50: 2.12 ± 0.08 µM
A549
  IC50: 0.08 ± 0.003 µM
In vitro
  IC50 at 24 h: 155 ± 3.05 µM

## COc1ccc(N2CCN(CC(=O)Nc3nc(OC)cc(OC)n3)CC2)cc1 [3i, N-(4,6-Dimethoxypyrimidin-2-yl)-2-(4-(4-methoxyphenyl)piperazin-1-yl)acetamide]
Lung cells
  IC50: 197.5 ± 1.74 µM
VEGFR2
  IC50: 3.99 ± 0.08 µM
Erythrocytes
  Hemolysis LC30 (lytic concentration 30%): >10000 µg/mL
MCF-7
  IC50: 2.98 ± 0.09 µM
bFGF
  IC50: 22.35 ± 0.1 µM
[1]
  Bodyweights 0 day ± SD: 21.33 ± 0.67 g
  Bodyweights 7 days ± SD: 25.83 ± 1.30 g
[2]
  Anticancer / antitumor activity (in words): better anticancer activities compared to the positive control
PDGFR
  IC50: 31.8 ± 3.12 µM
HeLa
  IC50: 0.9 ± 0.07 µM
EGFR
  IC50: 0.91 ± 0.006 µM
A549
  IC50: 2.22 ± 0.05 µM
In vitro
  IC50 at 24 h: 198.5 ± 1.13 µM

## COc1cc(OC)nc(NC(=O)CN2CCN(c3ccccn3)CC2)n1 [3m, N-(4,6-Dimethoxypyrimidin-2-yl)-2-(4-(pyridin-2-yl)piperazin-1-yl)acetamide]
Lung cells
  IC50: 165.8 ± 0.59 µM
VEGFR2
  IC50: 7.23 ± 0.78 µM
Erythrocytes
  Hemolysis LC30 (lytic concentration 30%): >10000 µg/mL
MCF-7
  IC50: 2.87 ± 0.004 µM
bFGF
  IC50: 3.8 ± 0.036 µM
[1]
  Bodyweights 0 day ± SD: 22.43 ± 1.02 g
  Bodyweights 7 days ± SD: 22.09 ± 1.02 g
PDGFR
  IC50: 50 ± 4.76 µM
HeLa
  IC50: 5.11 ± 0.006 µM
EGFR
  IC50: 2.55 ± 0.67 µM
A549
  IC50: 1.55 ± 0.004 µM
In vitro
  IC50 at 24 h: 182 ± 3.22 µM

## COc1cc(OC)nc(NC(=O)CN2CCN(c3cccc(C(F)(F)F)c3)CC2)n1 [3r, N-(4,6-Dimethoxypyrimidin-2-yl)-2-(4-(3-(trifluoromethyl)phenyl)piperazin-1-yl)acetamide]
Lung cells
  IC50: 150 ± 3.03 µM
VEGFR2
  IC50: 6.95 ± 0.68 µM
Erythrocytes
  Hemolysis LC30 (lytic concentration 30%): >10000 µg/mL
MCF-7
  IC50: 4.97 ± 0.01 µM
bFGF
  IC50: 33.9 ± 3.59 µM
[1]
  Bodyweights 0 day ± SD: 21.00 ± 1.01 g
  Bodyweights 7 days ± SD: 25.07 ± 1.21 g
PDGFR
  IC50: 3.87 ± 0.92 µM
HeLa
  IC50: 4.02 ± 0.01 µM
EGFR
  IC50: 1.96 ± 0.006 µM
A549
  IC50: 0.33 ± 0.07 µM
In vitro
  IC50 at 24 h: 185 ± 2.16 µM

## N.N.[Cl][Pt][Cl] [DDCP, reference compound]
Erythrocytes
  Hemolysis LC30 (lytic concentration 30%): >10000 µg/mL

## C#Cc1cccc(Nc2ncnc3cc(OCCOC)c(OCCOC)cc23)c1 [Erlotinib, reference compound]
Lung cells
  IC50: 195.2 ± 1.27 µM
MCF-7
  IC50: 0.15 ± 0.03 µM
HeLa
  IC50: 0.11 ± 0.01 µM
A549 cells
  Reduction of the growth of tumors: 49.09%
A549
  IC50: 0.1 ± 0.0004 µM
